The results in this text go back to patent publication US9242945B2, “Substituted 2-benzylidene-2H-benzo[b][1,4]thiazin-3(4H)-ones, derivatives thereof, and therapeutic uses thereof” (TEMPLE UNIVERSITY—OF THE COMMONWEALTH SYSTEM OF HIGHER …, priority 2011, dated 2016).

Assay [1] concerns K562 (chronic myelogenous leukemia; leukemia cell line +ve for Bcr-Abl). Put plainly: Cytotoxicity assay, K562 tumor cells. It counts as cell-based. The conditions noted are these: Homo sapiens, K562, 96 h treatment. The protocol:
(§1) The effect of the compounds of the invention on tumor cells was determined by the assay described by Latham et al., Oncogene 12:827-837 (1996). Tumor cells K562 (chronic myelogenous leukemia; leukemia cell line +ve for Bcr-Abl) or DU145 (prostate cancer) were plated in 12-well dishes at a cell density of 2.5×10^4 cells well. The plated cells were treated 24 hours later with a compound of the invention dissolved in DMSO at multiple concentrations ranging from 0.01 μM to 100 μM. The plates were examined 96 hours later under an inverted microscope, Olympus CK-2 using a 10× objective, and compound activity was noted by physical observation. When necessary, the total number of viable cells was determined by trypsinizing the wells and counting the number of viable cells, as determined by trypan blue exclusion, using a hemacytometer. Where “Lower” and “Upper” value are provided in Table 5, the IC50 was determined to be within that range. When only a “Lower” value is provided and no “Upper” value is listed, the IC50 was that value, or less than or greater than that value, as set forth in the Table.
(§2) The cytotoxicity of Compound 42, (Z)-6-((2,6-dichlorobenzyl)sulfonyl)-2-(4-hydroxy-3-nitrobenzylidene)-2H-benzo[b][1,4]thiazin-3(4H)-one, was determined according the assay method of Example 7 on the prostate (androgen dependent or independent), breast and pancreatic cancer cell lines listed in Table 6A, below, and the additional cell lines listed in Table 6B, below. The human mesenchymal stem cell line HMSC.hTERT and normal human fibroblast cell line HFL was included in the test.

A further assay has as its system DU145 (prostate cancer). Briefly: Cytotoxicity assay, DU145 tumor cells. The conditions noted are these: Homo sapiens, DU-145, 96 h treatment. It counts as cell-based. The protocol:
as §1, §2

Where [2] appears, read: lower limit of the IC50 range, or the IC50 itself (or its bound) where no Upper value is listed, read-out: K562 IC50 (μm) Lower (μm).
The mark [3] stands for this setting: upper limit of the IC50 range, read-out: K562 IC50 (μm) Upper (μm).
[4] abbreviates: lower limit of the IC50 range, or the IC50 itself (or its bound) where no Upper value is listed, read-out: DU145 IC50 (μm) Lower (μm).
The mark [5] stands for this setting: upper limit of the IC50 range, read-out: DU145 IC50 (μm) Upper (μm).

Where two headings read alike, the source gives them in different places.

The term IC50 denotes the concentration that gives 50% inhibition.

Regarding `CC(=O)Oc1ccc(/C=C2\Sc3ccc(Cl)cc3NC2=O)cc1[N+](=O)[O-]` [Compound 1, (Z)-4-((6-chloro-3-oxo-3,4-dihydro-2H-benzo[b][1,4]thiazin-2-ylidene)methyl)-2-nitrophenyl acetate], the half-maximal inhibitory concentration (IC50) was no less than 10 µM in assay [1] (setting [2]), no more than 25 µM in assay [1] (setting [3]), no less than 1 µM in the assay on DU145 (prostate cancer) (setting [4]) and no more than 10 µM in the assay on DU145 (prostate cancer) (setting [5]).
On the same counts, the results for `COc1ccc2c(c1)S/C(=C\c1ccc(OC(C)=O)c([N+](=O)[O-])c1)C(=O)N2` [Compound 2, (Z)-4-((7-methoxy-3-oxo-3,4-dihydro-2H-benzo[b][1,4]thiazin-2-ylidene)methyl)-2-nitrophenyl acetate] are no less than 1 µM, no more than 10 µM, no less than 1 µM and no more than 10 µM.
Turning to `CC(=O)Oc1ccc(/C=C2\Sc3cc(Br)ccc3NC2=O)cc1[N+](=O)[O-]` [Compound 3, (Z)-4-((7-bromo-3-oxo-3,4-dihydro-2H-benzo[b][1,4]thiazin-2-ylidene)methyl)-2-nitrophenyl acetate], the 50% inhibitory concentration (IC50) in assay [1] (setting [2]) is no less than 1 µM; in assay [1] (setting [3]), no more than 10 µM; in the assay with DU145 (prostate cancer) (setting [4]) it was no less than 10 µM; in the assay with DU145 (prostate cancer) (setting [5]), no more than 25 µM.
In the case of `CC(=O)Oc1ccc(/C=C2\Sc3cc(C)ccc3NC2=O)cc1[N+](=O)[O-]` [Compound 4, (Z)-4-((7-methyl-3-oxo-3,4-dihydro-2H-benzo[b][1,4]thiazin-2-ylidene)methyl)-2-nitrophenyl acetate], the IC50 in assay [1] (setting [2]) is no less than 1 µM; in assay [1] (setting [3]) it was no more than 10 µM; in the assay on DU145 (prostate cancer) (setting [4]) it was no less than 1 µM; in the assay with DU145 (prostate cancer) (setting [5]), no more than 10 µM.
Regarding `CC(=O)Oc1ccc(/C=C2\Sc3cc(C(=O)O)ccc3NC2=O)cc1[N+](=O)[O-]` [Compound 5, (Z)-2-(4-acetoxy-3-nitrobenzylidene)-3-oxo-3,4-dihydro-2H-benzo[b][1,4]thiazine-7-carboxylic acid], the 50% inhibitory concentration (IC50) in assay [1] (setting [2]) is no less than 50 µM; in assay [1] (setting [3]), no more than 100 µM; in the assay on DU145 (prostate cancer) (setting [4]), greater than 100 µM.
For `CC(=O)Oc1ccc(/C=C2\Sc3cc(F)ccc3NC2=O)cc1[N+](=O)[O-]` [Compound 6, (Z)-4-((7-fluoro-3-oxo-3,4-dihydro-2H-benzo[b][1,4]thiazin-2-ylidene)methyl)-2-nitrophenyl acetate], the concentration for half-maximal inhibition (IC50) in assay [1] (setting [2]) was no less than 1 µM; in assay [1] (setting [3]) it was no more than 10 µM; with DU145 (prostate cancer) (setting [5]) it was no more than 1 µM.
Consider `CC(=O)Oc1ccc(/C=C2\Sc3ccc(F)cc3NC2=O)cc1[N+](=O)[O-]` [Compound 7, (Z)-4-((6-fluoro-3-oxo-3,4-dihydro-2H-benzo[b][1,4]thiazin-2-ylidene)methyl)-2-nitrophenyl acetate], for which the IC50 is no less than 1 µM in assay [1] (setting [2]), no more than 10 µM in assay [1] (setting [3]), no less than 1 µM with DU145 (prostate cancer) (setting [4]) and no more than 10 µM in the assay on DU145 (prostate cancer) (setting [5]).
With `CC(=O)Oc1ccc(/C=C2\Sc3ccc(S(=O)(=O)Cc4c(Cl)cccc4Cl)cc3NC2=O)cc1[N+](=O)[O-]` [Compound 8, (Z)-4-((6-((2,6-dichlorobenzyl)sulfonyl)-3-oxo-3,4-dihydro-2H-benzo[b][1,4]thiazin-2-ylidene)methyl)-2-nitrophenyl acetate], the IC50 turned out to be 0.075 µM in assay [1] (setting [2]) and 0.1 µM with DU145 (prostate cancer) (setting [4]).
The matching figures for `CC(=O)Oc1ccc(/C=C2\Sc3ccc(S(=O)(=O)Cc4c(Cl)cccc4Cl)cc3NC2=O)cc1` [Compound 9, (Z)-4-((6-((2,6-dichlorobenzyl)sulfonyl)-3-oxo-3,4-dihydro-2H-benzo[b][1,4]thiazin-2-ylidene)methyl)phenyl acetate]: less than 1 µM and less than 1 µM.
In the case of `O=C1Nc2cc(S(=O)(=O)Cc3c(Cl)cccc3Cl)ccc2S/C1=C\c1ccccc1` [Compound 10, (Z)-2-benzylidene-6-((2,6-dichlorobenzyl)sulfonyl)-2H-benzo[b][1,4]thiazin-3(4H)-one], the half-maximal inhibitory concentration (IC50) in assay [1] (setting [2]) is no less than 1 µM; in assay [1] (setting [3]) it was no more than 10 µM; in the assay on DU145 (prostate cancer) (setting [4]), less than 1 µM.
For `COc1ccc(/C=C2\Sc3ccc(S(=O)(=O)Cc4c(Cl)cccc4Cl)cc3NC2=O)cc1[N+](=O)[O-]` [Compound 11, (Z)-6-((2,6-dichlorobenzyl)sulfonyl)-2-(4-methoxy-3-nitrobenzylidene)-2H-benzo[b][1,4]thiazin-3(4H)-one], the IC50 in assay [1] (setting [2]) was no less than 0.25 µM; in assay [1] (setting [3]) it was no more than 0.5 µM; in the assay with DU145 (prostate cancer) (setting [4]), no less than 0.25 µM; in the assay on DU145 (prostate cancer) (setting [5]), no more than 0.5 µM.
In the case of `COc1ccc(/C=C2\Sc3ccc(S(=O)(=O)Cc4c(Cl)cccc4Cl)cc3NC2=O)cc1N` [Compound 12, (Z)-2-(3-amino-4-methoxybenzylidene)-6-((2,6-dichlorobenzyl)sulfonyl)-2H-benzo[b][1,4]thiazin-3(4H)-one], the IC50 in assay [1] (setting [2]) is no less than 0.1 µM; in assay [1] (setting [3]) it was no more than 0.25 µM; in the assay with DU145 (prostate cancer) (setting [4]), no less than 0.25 µM; in the assay with DU145 (prostate cancer) (setting [5]), no more than 0.5 µM.
On the same counts, the results for `CN1CCN(c2ccc(/C=C3\Sc4ccc(S(=O)(=O)Cc5c(Cl)cccc5Cl)cc4NC3=O)cc2)CC1` [Compound 13, (Z)-6-((2,6-dichlorobenzyl)sulfonyl)-2-(4-(4-methylpiperazin-1-yl)benzylidene)-2H-benzo[b][1,4]thiazin-3(4H)-one] are no less than 0.5 µM, no more than 1 µM, no less than 1 µM and no more than 10 µM.
Take `O=C1Nc2cc(S(=O)(=O)Cc3c(Cl)cccc3Cl)ccc2S/C1=C\c1ccc([N+](=O)[O-])cc1` [Compound 14, (Z)-6-((2,6-dichlorobenzyl)sulfonyl)-2-(4-nitrobenzylidene)-2H-benzo[b][1,4]thiazin-3(4H)-one]: the half-inhibitory concentration (IC50) was no less than 1 µM in assay [1] (setting [2]), no more than 10 µM in assay [1] (setting [3]), no less than 1 µM in the assay with DU145 (prostate cancer) (setting [4]) and no more than 10 µM in the assay on DU145 (prostate cancer) (setting [5]).
As for `Nc1ccc(/C=C2\Sc3ccc(S(=O)(=O)Cc4c(Cl)cccc4Cl)cc3NC2=O)cc1` [Compound 15, (Z)-2-(4-aminobenzylidene)-6-((2,6-dichlorobenzyl)sulfonyl)-2H-benzo[b][1,4]thiazin-3(4H)-one], the IC50 in assay [1] (setting [2]) was 0.03 µM; with DU145 (prostate cancer) (setting [4]), 0.04 µM.
Consider `O=C1Nc2cc(S(=O)(=O)Cc3c(Cl)cccc3Cl)ccc2S/C1=C\c1ccc(F)cc1` [Compound 16, (Z)-6-((2,6-dichlorobenzyl)sulfonyl)-2-(4-fluorobenzylidene)-2H-benzo[b][1,4]thiazin-3(4H)-one], for which the half-maximal inhibitory concentration (IC50) in assay [1] (setting [2]) is no less than 1 µM; in assay [1] (setting [3]) it was no more than 10 µM; in the assay on DU145 (prostate cancer) (setting [4]), no less than 1 µM; in the assay on DU145 (prostate cancer) (setting [5]), no more than 10 µM.
As for `O=C1Nc2cc(S(=O)(=O)Cc3c(Cl)cccc3Cl)ccc2S/C1=C\c1ccc(Cl)cc1` [Compound 17, (Z)-2-(4-chlorobenzylidene)-6-((2,6-dichlorobenzyl)sulfonyl)-2H-benzo[b][1,4]thiazin-3(4H)-one], the IC50 in assay [1] (setting [2]) is no less than 1 µM; in assay [1] (setting [3]) it was no more than 10 µM; in the assay with DU145 (prostate cancer) (setting [4]), no less than 1 µM; in the assay with DU145 (prostate cancer) (setting [5]) it was no more than 10 µM.
With `O=C1Nc2cc(S(=O)(=O)Cc3c(Cl)cccc3Cl)ccc2S/C1=C\c1ccc(Br)cc1` [Compound 18, (Z)-2-(4-bromobenzylidene)-6-((2,6-dichlorobenzyl)sulfonyl)-2H-benzo[b][1,4]thiazin-3(4H)-one], the concentration for half-maximal inhibition (IC50) in assay [1] (setting [2]) was no less than 1 µM; in assay [1] (setting [3]), no more than 10 µM; in the assay on DU145 (prostate cancer) (setting [4]), no less than 1 µM; with DU145 (prostate cancer) (setting [5]), no more than 10 µM.
With `O=C1Nc2cc(S(=O)(=O)Cc3c(Cl)cccc3Cl)ccc2S/C1=C\c1ccc(Cl)cc1Cl` [Compound 22, (Z)-6-((2,6-dichlorobenzyl)sulfonyl)-2-(2,4-dichlorobenzylidene)-2H-benzo[b][1,4]thiazin-3(4H)-one], the IC50 in assay [1] (setting [2]) was no less than 1 µM; in assay [1] (setting [3]), no more than 10 µM; in the assay on DU145 (prostate cancer) (setting [4]) it was no less than 1 µM; with DU145 (prostate cancer) (setting [5]) it was no more than 10 µM.
With `CC(=O)n1cc(/C=C2\Sc3ccc(S(=O)(=O)Cc4c(Cl)cccc4Cl)cc3NC2=O)c2ccccc21` [Compound 26, (Z)-2-((1-acetyl-1H-indol-3-yl)methylene)-6-((2,6-dichlorobenzyl)sulfonyl)-2H-benzo[b][1,4]thiazin-3(4H)-one], the half-inhibitory concentration (IC50) was no less than 0.5 µM in assay [1] (setting [2]), no more than 1 µM in assay [1] (setting [3]), no less than 0.5 µM in the assay on DU145 (prostate cancer) (setting [4]) and no more than 1 µM with DU145 (prostate cancer) (setting [5]).
On to `O=C1Nc2cc(S(=O)(=O)Cc3c(Cl)cccc3Cl)ccc2S/C1=C\c1ccc(Cl)c([N+](=O)[O-])c1` [Compound 29, (Z)-2-(4-chloro-3-nitrobenzylidene)-6-((2,6-dichlorobenzyl)sulfonyl)-2H-benzo[b][1,4]thiazin-3(4H)-one], for which the concentration for half-maximal inhibition (IC50) in assay [1] (setting [2]) is no less than 1 µM; in assay [1] (setting [3]) it was no more than 10 µM; in the assay on DU145 (prostate cancer) (setting [4]), no less than 0.5 µM; with DU145 (prostate cancer) (setting [5]), no more than 1 µM.
